In ChEMBL document CHEMBL1201862, “PubChem BioAssay data set” (2004):
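Step 1: Grow cells in 96-well plates. Step 2: Expose to compound for 48 hours at 5 concentrations. Step 3: Interpolate endpoints linearly; if unreached, use highest concentration. At the GI50, growth is halved.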 The source made the active and inactive calls. Rule as the data show it: active = GI50 up to about 1.1 µM and inactive = higher.

Experiments:
Experiment in all cases: NCI tumour cell line growth inhibition, 48 h
[1] = test system: 786-0
[2] = test system: A498
[3] = test system: A549
[4] = test system: ACHN
[5] = test system: BT-549
[6] = test system: CAKI-1
[7] = test system: CCRF-CEM
[8] = test system: COLO 205
[9] = test system: DU-145
[10] = test system: EKVX
[11] = test system: HCT-116
[12] = test system: HCT-15
[13] = test system: HL-60
[14] = test system: HOP-62
[15] = test system: HT-29
[16] = test system: Hs-578T
[17] = test system: IGROV-1
[18] = test system: K562
[19] = test system: KM12
[20] = test system: LOX IMVI
[21] = test system: M14
[22] = test system: MCF7
[23] = test system: MDA-MB-231
[24] = test system: MDA-MB-435
[25] = test system: MDA-N
[26] = test system: MOLT-4
[27] = test system: Malme-3M
[28] = test system: NCI-H226
[29] = test system: NCI-H23
[30] = test system: NCI-H460
[31] = test system: NCI-H522
[32] = test system: NCI/ADR-RES
[33] = test system: OVCAR-3
[34] = test system: OVCAR-4
[35] = test system: OVCAR-5
[36] = test system: OVCAR-8
[37] = test system: PC-3
[38] = test system: RPMI-8226
[39] = test system: SF-295
[40] = test system: SF-539
[41] = test system: SK-MEL-28
[42] = test system: SK-MEL-2
[43] = test system: SK-MEL-5
[44] = test system: SK-OV-3
[45] = test system: SN12C
[46] = test system: SNB-19
[47] = test system: SR
[48] = test system: SW-620
[49] = test system: T47D
[50] = test system: TK-10
[51] = test system: U-251
[52] = test system: UACC-257
[53] = test system: UO-31
[54] = test system: HCC 2998
[55] = test system: HOP-92
[56] = test system: SF-268
[57] = test system: SNB-75
[58] = test system: UACC-62
[59] = test system: RXF 393

C=C1CC[C@@H]2[C@](C)(COC(=O)CCC(=O)OC)CCC[C@@]2(C)[C@@H]1CCC1=CC(=O)OC1
GI50 [1]: 70.5 µM (inactive)
GI50 [2]: > 100 µM (inactive)
GI50 [3]: > 100 µM (inactive)
GI50 [4]: > 100 µM (inactive)
GI50 [5]: 64.9 µM (inactive)
GI50 [6]: 26.2 µM (inactive)
GI50 [7]: 28.2 µM (inactive)
GI50 [8]: 77.8 µM (inactive)
GI50 [9]: 71.4 µM (inactive)
GI50 [10]: > 100 µM (inactive)
GI50 [11]: 59.8 µM (inactive)
GI50 [12]: 39.5 µM
GI50 [13]: 20.3 µM (inactive)
GI50 [14]: > 100 µM (inactive)
GI50 [15]: > 100 µM (inactive)
GI50 [16]: 77.6 µM (inactive)
GI50 [17]: > 100 µM (inactive)
GI50 [18]: 29 µM (inactive)
GI50 [19]: 43.6 µM (inactive)
GI50 [20]: 55.3 µM (inactive)
GI50 [21]: > 100 µM (inactive)
GI50 [22]: 38.1 µM (inactive)
GI50 [23]: > 100 µM (inactive)
GI50 [24]: > 100 µM (inactive)
GI50 [25]: 56 µM (inactive)
GI50 [26]: 17.4 µM (inactive)
GI50 [27]: > 100 µM (inactive)
GI50 [28]: 74.3 µM (inactive)
GI50 [29]: > 100 µM (inactive)
GI50 [30]: > 100 µM (inactive)
GI50 [31]: 25.9 µM (inactive)
GI50 [32]: 72.8 µM (inactive)
GI50 [33]: 61.4 µM (inactive)
GI50 [34]: > 100 µM (inactive)
GI50 [35]: > 100 µM (inactive)
GI50 [36]: 63 µM (inactive)
GI50 [37]: 41 µM (inactive)
GI50 [38]: 16.1 µM (inactive)
GI50 [39]: > 100 µM (inactive)
GI50 [40]: > 100 µM (inactive)
GI50 [41]: > 100 µM (inactive)
GI50 [42]: 43.4 µM (inactive)
GI50 [43]: 30.5 µM (inactive)
GI50 [44]: > 100 µM (inactive)
GI50 [45]: > 100 µM (inactive)
GI50 [46]: > 100 µM (inactive)
GI50 [47]: 21.5 µM (inactive)
GI50 [48]: 46.5 µM (inactive)
GI50 [49]: 29.2 µM (inactive)
GI50 [50]: > 100 µM (inactive)
GI50 [51]: > 100 µM (inactive)
GI50 [52]: > 100 µM (inactive)
GI50 [53]: > 100 µM (inactive)

Cc1cc(C)nc(NS(=O)(=O)c2ccc(Nc3c4ccccc4nc4c(C(=O)NCCO)cccc34)cc2)n1
GI50 [1]: > 10 µM (inactive)
GI50 [2]: 38.5 µM (inactive)
GI50 [3]: 29.6 µM (inactive)
GI50 [4]: 19.7 µM (inactive)
GI50 [5]: 17.6 µM (inactive)
GI50 [6]: 23.3 µM (inactive)
GI50 [7]: 10.3 µM (inactive)
GI50 [8]: 15.1 µM (inactive)
GI50 [9]: 40.8 µM (inactive)
GI50 [10]: 41.5 µM (inactive)
GI50 [54]: 10.4 µM (inactive)
GI50 [12]: 17.8 µM
GI50 [13]: 31.8 µM (inactive)
GI50 [14]: 9.31 µM (inactive)
GI50 [55]: > 100 µM (inactive)
GI50 [15]: 13.1 µM (inactive)
GI50 [16]: 53.1 µM (inactive)
GI50 [17]: 25.8 µM (inactive)
GI50 [18]: 12.4 µM (inactive)
GI50 [19]: 10.9 µM (inactive)
GI50 [20]: 10.6 µM (inactive)
GI50 [21]: 31.1 µM (inactive)
GI50 [22]: 18 µM (inactive)
GI50 [23]: 12.4 µM (inactive)
GI50 [24]: 16.6 µM (inactive)
GI50 [25]: 18.1 µM (inactive)
GI50 [26]: 4.79 µM (inactive)
GI50 [27]: 14.8 µM (inactive)
GI50 [29]: 23.8 µM (inactive)
GI50 [30]: 14.1 µM (inactive)
GI50 [31]: 12.3 µM (inactive)
GI50 [32]: 48.5 µM (inactive)
GI50 [33]: 19.8 µM (inactive)
GI50 [34]: 33.3 µM (inactive)
GI50 [35]: 24.5 µM (inactive)
GI50 [36]: 8.24 µM (inactive)
GI50 [37]: 23.2 µM (inactive)
GI50 [38]: 10.3 µM (inactive)
GI50 [56]: 14.5 µM (inactive)
GI50 [39]: 11.8 µM (inactive)
GI50 [41]: 19.6 µM (inactive)
GI50 [42]: 11.8 µM (inactive)
GI50 [43]: 17.1 µM (inactive)
GI50 [44]: 44.9 µM (inactive)
GI50 [45]: 15 µM (inactive)
GI50 [46]: 16.6 µM (inactive)
GI50 [57]: 3.27 µM (inactive)
GI50 [47]: 10.7 µM (inactive)
GI50 [48]: 16.7 µM (inactive)
GI50 [49]: 25.9 µM (inactive)
GI50 [51]: 17.1 µM (inactive)
GI50 [52]: > 10 µM (inactive)
GI50 [58]: 21.5 µM (inactive)
GI50 [53]: > 10 µM (inactive)

Cc1nn(-c2ccccc2)c(C)c1/C=N/N=C1\S/C(=C\c2ccc(Cl)cc2)C(=O)N1c1ccccc1
GI50 [1]: 3.13 µM (inactive)
GI50 [2]: > 100 µM (inactive)
GI50 [3]: 10.7 µM (inactive)
GI50 [4]: 68.7 µM (inactive)
GI50 [5]: > 100 µM (inactive)
GI50 [6]: > 100 µM (inactive)
GI50 [7]: > 100 µM (inactive)
GI50 [8]: > 100 µM (inactive)
GI50 [9]: > 100 µM (inactive)
GI50 [10]: > 100 µM (inactive)
GI50 [11]: 9.48 µM (inactive)
GI50 [12]: 9.89 µM
GI50 [13]: 11.8 µM (inactive)
GI50 [14]: 20.1 µM (inactive)
GI50 [55]: 91 µM (inactive)
GI50 [15]: 16.6 µM (inactive)
GI50 [16]: 5.65 µM (inactive)
GI50 [17]: 5.83 µM (inactive)
GI50 [18]: 7.91 µM (inactive)
GI50 [19]: 7.67 µM (inactive)
GI50 [20]: > 100 µM (inactive)
GI50 [21]: > 100 µM (inactive)
GI50 [22]: 17.3 µM (inactive)
GI50 [23]: 34.7 µM (inactive)
GI50 [24]: 32 µM (inactive)
GI50 [25]: 62.5 µM (inactive)
GI50 [26]: 14.2 µM (inactive)
GI50 [27]: 28.1 µM (inactive)
GI50 [28]: > 100 µM (inactive)
GI50 [29]: 7.38 µM (inactive)
GI50 [30]: > 100 µM (inactive)
GI50 [32]: 17.2 µM (inactive)
GI50 [33]: > 100 µM (inactive)
GI50 [34]: 2.15 µM (inactive)
GI50 [35]: > 100 µM (inactive)
GI50 [36]: 40.3 µM (inactive)
GI50 [37]: > 100 µM (inactive)
GI50 [38]: 26.4 µM (inactive)
GI50 [59]: 12.6 µM (inactive)
GI50 [56]: 51.5 µM (inactive)
GI50 [39]: > 100 µM (inactive)
GI50 [40]: > 100 µM (inactive)
GI50 [41]: > 100 µM (inactive)
GI50 [42]: > 100 µM (inactive)
GI50 [43]: > 100 µM (inactive)
GI50 [44]: > 100 µM (inactive)
GI50 [45]: > 100 µM (inactive)
GI50 [46]: 48.8 µM (inactive)
GI50 [57]: 11.6 µM (inactive)
GI50 [48]: 9.2 µM (inactive)
GI50 [49]: > 100 µM (inactive)
GI50 [50]: 14.2 µM (inactive)
GI50 [51]: 10.9 µM (inactive)
GI50 [52]: > 100 µM (inactive)
GI50 [58]: 16.8 µM (inactive)
GI50 [53]: > 100 µM (inactive)
